Among the data in paper PMC10989010, “A panel of janus kinase inhibitors identified with anti-inflammatory effects protect mice from lethal influenza virus infection” (Antimicrobial Agents and Chemotherapy, 2024) are CC50 and IC50 values, retold here.

The nature of data set [1]: Cytotoxicity assay (CellTiter-Glo). Type of data set: cell-based, human. The conditions noted are these: human. The method, then: (§1) The compound cytotoxicity was determined by CellTiter-Glo Assay (Promega, Madison, WI, USA). After adding 15 µL of CellTiter-Glo reagent to each well, plates were incubated at room temperature for 15 minutes with shaking. The luminescence intensity was determined by a multimode plate reader (Wallac Envision, PerkinElmer, MA, USA).
A general note: In ATP-based viability assays light output follows the ATP content of the culture.

The test system of data set [2] is IP-10. As to the kind of experiment: cells. Type of data set: cell-based, human. The note with it: read-out: IC50 IP-10.
Data set [3] has as its system IL-8. Description: U937 cell-based anti-inflammatory assay for influenza virus infection, IL-8 production (AlphaLISA). On the set-up: species or system human. The note with it: read-out: IC50 IL-8. The method, then:
U937 cells were seeded in a 96-well culture plate at a density of 1.5 × 10^5 cells per well and incubated for 24 hours prior to virus infection. Subsequently, the cells in each well were infected with the PR8 virus at a multiplicity of infection of 0.05 and treated with serially diluted drugs or left untreated as a control. The drugs were serially diluted threefold, starting from an initial concentration of 200 µM down to 0.01 µM. […] Following this incubation, the supernatants were collected and subjected to AlphaLISA analysis to determine IL-8, IP-10, and MCP1 protein levels.
The AlphaLISA detection kits employed in this study were IL-8 (PerkinElmer AL224), IP-10 (PerkinElmer AL259), and MCP1 (PerkinElmer, AL244). U937 cell culture supernatants were measured for IL-8, IP-10, and MCP-1 protein levels using AlphaLISA assay as per the manufacturer’s recommendations. The ELISA and AlphaLISA plates were read using the Varioskan LUX multimode microplate reader (Thermo Scientiﬁc, Waltham, MA, USA).
(Alpha assays give light when donor and acceptor beads are brought close together.)

Data set [4] deals with U937 cells. As to the kind of experiment: Cytotoxicity assay (CellTiter-Glo). Type of data set: cell-based, human. The note with it: U937 cells; CellTiter-Glo; mean of three independent experiments. The method, then: as §1
In data set [5] the test system is MCP1. As to the kind of experiment: cells. Type of data set: cell-based, human. The conditions noted are these: read-out: IC50 MCP1.
The mark [6] stands for this setting: U937 cells, CellTiter-Glo, mean of three independent experiments, read-out: CC50.

Counter-ions that a name gives are not always drawn. Like-named read-outs stand apart in the source and are kept apart here. Bounds are passed on as bounds.

The term CC50 denotes the concentration at which the toxic effect on the cells reaches its halfway point. With `C[C@@H]1CCN(C(=O)CC#N)C[C@@H]1N(C)c1ncnc2[nH]ccc12` [Tofacitinib citrate], the CC50 in data set [1] (setting [6]) is > 100000 nM.

One may read the IC50 as the point on the concentration scale where inhibition reaches its midpoint. In data set [1], `NC(=O)c1cnc2[nH]ccc2c1N[C@@H]1[C@@H]2CC3C[C@H]1C[C@@](O)(C3)C2` [Peficitinib] came in with a CC50 of 34700 nM. Moreover, the IC50 in data set [2] (Homo sapiens, U-937, 72 h) was 20 nM; in data set [3] (Homo sapiens, U-937, 72 h), 10 nM.

For `O=C(Nc1ccc(-c2ccnc(Nc3ccc(N4CCOCC4)cc3)n2)cc1)C1CCCN1` (stereo not drawn) [XL019], it took 26700 nM to reach half-maximal cytotoxicity in data set [4] (CC50). For the same molecule, the IC50 in data set [5] (Homo sapiens, U-937, 72 h) stood at 940 nM; in data set [2] (Homo sapiens, U-937, 72 h) it was 990 nM; in data set [3] (Homo sapiens, U-937, 72 h) it was 510 nM.

In the case of `Cc1cc(Nc2nc(N[C@@H](C)c3ccc(F)cc3)c(C#N)cc2F)n[nH]1` [AZ 960], the CC50 in data set [4] was 6000 nM. Also, the 50% inhibitory concentration (IC50) in data set [5] (Homo sapiens, U-937, 72 h) is < 5 nM; in data set [2] (Homo sapiens, U-937, 72 h), 10 nM; in data set [3] (Homo sapiens, U-937, 72 h), < 5 nM.

With `N#CC[C@H](C1CCCC1)n1cc(-c2ncnc3[nH]ccc23)cn1` [Ruxolitinib], half-maximal cytotoxicity in data set [4] (CC50) was put at 100000 nM. In addition, the IC50 was found to be 30 nM in data set [5] (Homo sapiens, U-937, 72 h); 70 nM in data set [2] (Homo sapiens, U-937, 72 h); 120 nM in data set [3] (Homo sapiens, U-937, 72 h).

With `Cc1cc(Nc2nc(N[C@@H](C)c3ncc(F)cn3)ncc2Cl)n[nH]1` [AZD1480], in data set [1] (setting [6]), the CC50 came to 13500 nM. For the same molecule, the IC50 stood at 300 nM in data set [5] (Homo sapiens, U-937, 72 h); 1000 nM in data set [2] (Homo sapiens, U-937, 72 h); 1100 nM in data set [3] (Homo sapiens, U-937, 72 h).

Regarding `C[C@@H]1CCN(C(=O)CC#N)C[C@@H]1N(C)c1ncnc2[nH]ccc12` [Tofacitinib], in data set [4], the CC50 is > 100000 nM.

In data set [4], `CC[C@@](C)(Nc1ccnc(-c2c[nH]c3ncccc23)n1)C(=O)NCC(F)(F)F` [Decernotinib] returned a cytotoxic concentration (CC50) of 50000 nM. The IC50 in data set [5] (Homo sapiens, U-937, 72 h) was 50 nM; in data set [2] (Homo sapiens, U-937, 72 h), 100 nM.

Take `CCS(=O)(=O)N1CC(CC#N)(n2cc(-c3ncnc4[nH]ccc34)cn2)C1` [Baricitinib]: the CC50 in data set [4] is > 100000 nM.

Consider `Cc1cc(Nc2cc(CN3CCOCC3)c3nc(C)c(Cc4ccc(Cl)cc4F)n3n2)n[nH]1` [Gandotinib], for which, in data set [4], the CC50 was found to be 26000 nM. Also, the half-maximal inhibitory concentration (IC50) in data set [5] (Homo sapiens, U-937, 72 h) is < 5 nM; in data set [2] (Homo sapiens, U-937, 72 h) it was 10 nM; in data set [3] (Homo sapiens, U-937, 72 h), < 5 nM.

Consider `CCS(=O)(=O)N1CCN(c2ccc(Nc3ncc(C(N)=O)c(NC4CC4)n3)cc2)CC1` [Cerdulatinib hydrochloride], for which, in data set [4], the CC50 worked out at 3500 nM. Besides, the half-maximal inhibitory concentration (IC50) in data set [5] (Homo sapiens, U-937, 72 h) is 20 nM; in data set [2] (Homo sapiens, U-937, 72 h) it was 50 nM; in data set [3] (Homo sapiens, U-937, 72 h) it was < 5 nM.

As to `N#CCNC(=O)c1ccc(-c2ccnc(Nc3ccc(N4CCOCC4)cc3)n2)cc1` [Momelotinib], the CC50 in data set [4] was found to be 5400 nM. Further, the IC50 was 30 nM in data set [5] (Homo sapiens, U-937, 72 h); 480 nM in data set [2] (Homo sapiens, U-937, 72 h); 300 nM in data set [3] (Homo sapiens, U-937, 72 h).

Turning to `N#CC[C@@H](C1CCCC1)n1cc(-c2ncnc3[nH]ccc23)cn1` [S-Ruxolitinib], the CC50 in data set [1] (setting [6]) stood at 100000 nM. The IC50 in data set [5] (Homo sapiens, U-937, 72 h) is 60 nM; in data set [2] (Homo sapiens, U-937, 72 h) it was 80 nM; in data set [3] (Homo sapiens, U-937, 72 h), 30 nM.

`CN1CCN(c2cccc(Nc3nc4c(-c5ccc(S(C)(=O)=O)cc5)cccn4n3)c2)CC1` [CEP-33779]: in data set [4], the CC50 was 10500 nM. In addition, the IC50 in data set [5] is 240 nM; in data set [2], 220 nM; in data set [3] (U937 cells infected with PR8 virus, 72 hours, Alphalisa, mean of three independent experiments), 360 nM.
